The values below come from patent publication US20080255137A1 (Arena Pharmaceuticals, Inc., priority 2004, published 2008).

One experiment concerns the target T1, human 5HT2C receptor (Homo sapiens, UniProt P28335).
T1 construct: expressed in transfected cells; host or cells: HEK293
T1 sequence (P28335 33-458): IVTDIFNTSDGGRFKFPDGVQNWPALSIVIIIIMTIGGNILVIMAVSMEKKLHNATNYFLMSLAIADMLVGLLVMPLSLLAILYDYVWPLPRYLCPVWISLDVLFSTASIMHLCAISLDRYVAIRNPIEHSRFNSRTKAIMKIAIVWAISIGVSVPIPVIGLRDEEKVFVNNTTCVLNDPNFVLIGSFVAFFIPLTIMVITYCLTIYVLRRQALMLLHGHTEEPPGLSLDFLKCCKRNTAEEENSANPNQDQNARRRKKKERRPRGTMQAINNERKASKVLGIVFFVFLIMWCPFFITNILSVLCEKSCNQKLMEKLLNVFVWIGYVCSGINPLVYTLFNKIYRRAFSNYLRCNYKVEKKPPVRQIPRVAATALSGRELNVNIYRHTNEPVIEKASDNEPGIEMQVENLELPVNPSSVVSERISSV
The experiment is described as follows: Intracellular IP3 (IP) accumulation assay, 5HT2C. It counts as cell-based. Particulars: HEK293 cells transfected with human 5HT2C receptor cDNA. The procedure: HEK293 cells were transfected in 15 cm sterile dishes with or without (control) 16 ug of human 5HT2C receptor cDNA [for example see, Saltzman, A. G., et al. Biochem. Biophys. Res. Commun. 181, 1469-1478 (1991)] using 25 ul of lipofectamine. Cells were then incubated for 3-4 hours at 37° C./5% CO2 and then transfection media was removed and replaced with 100 ul of DMEM. Cells were then plated onto 100 cm sterile dishes. The next day cells were plated into 96 well PDL microtiter plates at a density of 55K/0.2 mL. Six hours latter, media was exchanged with [^3H]inositol (0.25 uCi/well) in inositol free DMEM and plates were incubated at 37° C./5% CO2 overnight. The next day, wells were aspirated and 200 ul of DMEM containing test compound, 10 uM pargyline, and 10 mM LiCl was added to appropriate wells. Plates were then incubated at 37° C./5% CO2 for three hours followed aspiration and by addition of fresh ice cold stop solution (1M KOH, 19 mM Na-borate, 3.8 mM EDTA) to each well. Plates were kept on ice for 5-10 min and the wells were neutralized by addition of 200 ul of fresh ice cold neutralization solution (7.5% HCl). Plates were then frozen until further processing is desired. The lysate was then transferred into 1.5 mL Eppendorf tubes and 1 mL of chloroform/methanol (1:2) was added/tube. […]

In a further experiment the target is 5HT2A receptor (Homo sapiens, UniProt P28223). The experiment is described as follows: EC50 against the 5HT2A receptor (selectivity). It counts as cell-based.
Chain of 5HT2A receptor (P28223 whole entry): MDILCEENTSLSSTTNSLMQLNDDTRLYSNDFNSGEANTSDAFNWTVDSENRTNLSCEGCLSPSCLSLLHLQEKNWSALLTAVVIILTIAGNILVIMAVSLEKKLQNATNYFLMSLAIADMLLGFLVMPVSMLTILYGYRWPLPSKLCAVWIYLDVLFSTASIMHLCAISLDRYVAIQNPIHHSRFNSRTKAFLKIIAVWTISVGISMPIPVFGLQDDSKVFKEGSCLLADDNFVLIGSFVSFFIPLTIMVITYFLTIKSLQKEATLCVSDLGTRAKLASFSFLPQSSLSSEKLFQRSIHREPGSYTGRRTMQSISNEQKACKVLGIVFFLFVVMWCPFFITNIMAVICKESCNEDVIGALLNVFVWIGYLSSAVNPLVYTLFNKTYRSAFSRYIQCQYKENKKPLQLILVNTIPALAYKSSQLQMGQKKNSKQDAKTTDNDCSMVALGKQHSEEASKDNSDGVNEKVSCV
The target of another experiment is 5HT2B receptor (Homo sapiens, UniProt P41595). Briefly: Activity against the 5HT2B receptor (selectivity). It counts as cell-based.
Chain of 5HT2B receptor (P41595 whole entry): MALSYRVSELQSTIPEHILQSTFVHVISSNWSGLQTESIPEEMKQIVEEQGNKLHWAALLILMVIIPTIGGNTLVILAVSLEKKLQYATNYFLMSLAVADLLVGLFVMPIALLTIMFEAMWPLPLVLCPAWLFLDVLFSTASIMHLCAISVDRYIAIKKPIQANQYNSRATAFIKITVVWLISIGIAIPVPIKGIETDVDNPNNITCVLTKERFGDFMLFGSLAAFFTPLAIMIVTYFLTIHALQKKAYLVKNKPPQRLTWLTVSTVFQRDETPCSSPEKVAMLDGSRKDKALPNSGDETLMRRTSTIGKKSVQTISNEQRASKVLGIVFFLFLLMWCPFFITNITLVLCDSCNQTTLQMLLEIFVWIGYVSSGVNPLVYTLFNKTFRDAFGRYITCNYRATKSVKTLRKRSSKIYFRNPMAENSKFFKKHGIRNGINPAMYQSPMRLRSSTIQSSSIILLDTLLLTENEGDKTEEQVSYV
Another experiment concerns guinea pigs. As to conditions: repeat administration; cited from earlier work.

At human 5HT2C receptor, `C[C@@H]1CNCCN1c1cc(F)cc(-c2ccsc2)c1` [Compound 1] yielded an EC50 of 2 nM.
As for `C[C@@H]1CNCCN1c1cccc(-c2ccccc2)c1F` [Compound 10, (R)-1-(2-Fluoro-biphenyl-3-yl)-2-methyl-piperazine], the EC50 on 5HT2A receptor was roughly 1700 nM; on human 5HT2C receptor, 5 nM. In addition, at 5HT2B receptor, the “activity against the 5HT2B receptor” value was “essentially inactive”.
`C[C@H](N)Cc1cccc(C(F)(F)F)c1` [DEXNOR, dexnorfenfluramine]: in the experiment with guinea pigs, the “amyloid precursor protein (APPs) secretion” value is reported as “stimulated” and the “levels of Aβ production in vivo” value is “reducing”.
